In patent US20250049962A1, “NEAR-INFRARED FLUORESCENT CONTRAST BIOIMAGING AGENTS FOR IMAGING OF SENTINEL LYMPH NODES” (Curadel Surgical Innovations, Inc., priority 2021, published 2025):
Entries after “also recorded” stand apart in the source; their conditions may differ.

What was measured:
[1] = Biodistribution and clearance 4 hours after intravenous injection; assay type: in vivo, CD-1 mice; conditions: 4 hours post iv injection
Protocol: (§1) All foot pad injections and intravenous injections were 10 μL of each of these 500 μM concentrations for a total of 5 nmol per injection.
In order to show the biodistribution benefits of ICB, the same procedure was used using intravenous injections. After 4 hours animals were sacrificed, and the target tissue and other major organs including heart, lung, liver, spleen, pancreas, kidneys, duodenum, intestine, and muscle were resected to quantify biodistribution and clearance. A biodistribution analysis of all three dyes at 4 hours post iv injection.

[2] = Solubility measurement; assay type: physicochemical
Protocol: However, the contrast agent is soluble in mixtures of water and ethanol. […] After mixing for an extended period, the solutions were filtered using a 0.45 um spin filter. The solvent of known volumes was then removed by evaporation and solubility was determined by measuring the remaining solids in the pre-measured evaporating flask.

[3] = SLN imaging after footpad injection, NIR fluorescence imaging; assay type: in vivo, CD-1 mice
Text: Neae Infrared fluorescence imaging can be achieved using a number of commercially available imaging systes. For example, the dual-NIR channel FLARE imaging system has been described in detail. It provides simultaneous illumination with white light (400-650 nm) at 40,000 lx, 660 nm NIR Channel 1 excitation at 4 mW/cm^2 and […] NIR Channel 2 excitation at 10 mW/cm^2. Color and two independent NIR fluorescence emission images (≈700 nm for Channel 1 and ≈800 nm for Channel 2) were acquired simultaneously with custom software at rates up to 15 Hz over a 15 cm diameter field of view. NIR fluorescence from Channel 1 was pseudo-colored in red and NIR fluorescence from Channel 2 was pseudo-colored in lime green prior to merger with the color video image. The imaging system was positioned at a distance of 18 inches from the surgical field.
as §1
Sentinel lymph nodes were observed a near infrared (NIR) imaging system.
The target tissue was exposed and the SLN was imaged for NIR fluorescence using dual channels [Channel 1 (700 nm) and Channel 2 (800 nm)] of a NIR imaging system.

[4] = Lymph flow imaging after intradermal peri-tail injection; assay type: in vivo, CD-1 mice; conditions: until 15 minutes post injection, ICG at 800 nm, FIG. 4
Protocol: The same procedure was used using intradermal peri-tail injections to visual lymph flow until 15 minutes post injection at which point the animal was sacrificed. […] The arrow with the circle indicates the first-tier node.

Row | route of clearance [1] | signal in the kidneys ([1]; 5 nmol) | signal in the large intestine ([1]; 5 nmol) | signal in the stomach ([1]; 5 nmol) | solubility ([2]; D5W) | solubility ([2]; water) | liver (hepatic) clearance observed by the imaging ([3]; footpad injection, CD-1 mice) | Molecule | leakage / flow through from sentinel lymph nodes ([3]; 5 nmol footpad injection, CD-1 mice) | first-tier/second-tier signal-to-background ratio ([3]; 15 minutes post-injection, 5 nmol footpad injection, CD-1 mice) | brightness of visualization ([3]; compared to SLN700, 700 nm) | LN skipping [4]
1 | completely cleared by the liver | Minimal signal | enhanced signal | to lesser extent | at least 10 mg/mL | at least 10 mg/mL | Visible liver (hepatic) clearance | 4-[(2Z)-2-[(2E,4E)-5-[3,3-dimethyl-1-(4-sulfobutyl) indol-1-ium-2-yl]penta-2,4-dienylidene]-3,3-dimethylindol-1-yl]butane-1-sulfonic acid [ICB] | considerably less leakage over ICG or SLN700; also recorded: little to no significant flow through | 5.4±1.6 | brighter | –
2 | – | – | enhanced signal | to lesser extent | – | – | – | CC1(C)C(/C=C/C=C/C=C/C=C2\N(CCCCS(=O)(=O)O)c3ccc4ccccc4c3C2(C)C)=[N+](CCCCS(=O)(=O)[O-])c2ccc3ccccc3c21 [ICG, indocyanine green, reference compound] | – | – | – | significant LN skipping
